Measurements from PMC7062746, “X-ray Crystallography and Electron Paramagnetic Resonance Spectroscopy Reveal Active Site Rearrangement of Cold-Adapted Inorganic Pyrophosphatase” (Scientific Reports, 2020).

Molecular target: T1, Sh-PPase (Mn-Sh-PPase; Mg-Sh-PPase) (Shewanella sp. AS-11, UniProt L8AXY8)
T1 construct: gene ppia; recombinant full-length (no tag stated), expressed in E. coli BL21 (DE3); ammonium sulphate fractionation, anion exchange, gel filtration; family II PPases are homodimers
T1 sequence (L8AXY8 2-308): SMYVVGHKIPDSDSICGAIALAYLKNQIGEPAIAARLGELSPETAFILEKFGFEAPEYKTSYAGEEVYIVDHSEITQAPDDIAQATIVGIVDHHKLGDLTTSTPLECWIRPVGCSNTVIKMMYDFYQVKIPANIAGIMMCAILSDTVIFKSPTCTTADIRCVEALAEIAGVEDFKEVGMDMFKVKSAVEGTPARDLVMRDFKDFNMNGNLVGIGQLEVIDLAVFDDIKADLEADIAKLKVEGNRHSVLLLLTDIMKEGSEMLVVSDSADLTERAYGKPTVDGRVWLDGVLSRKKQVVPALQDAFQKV
Experiment: CW X-band EPR of the di-Mn centre
Type: binding
Conditions: Mn-activated enzyme, pH 7.5, frozen solution

Compound	CW X-band EPR of the di-Mn centre (substrate analogue, di-Mn centre signal lost on binding (inferred binding))	CW X-band EPR of the di-Mn centre (added as ammonium sulphate, substrate binding site)
O=P(O)(O)CP(=O)(O)O [PCP, methylendiphosphonic acid]	binding of PCP induced the decomposition of the di-Mn centre	–
O=S(=O)(O)O [sulphate]	–	sulphate ion bound correctly to the substrate binding site
